Columns and labels:
Fusarium virguliforme [1] = experiment: Sensitivity of F. virguliforme isolates: mycelial growth inhibition on amended potato dextrose agar plates; format: cell-based; conditions: for ED50 (effective dose for 50% of the fungal growth inhibition): potato dextrose agar, 20° C., 9 days
Experimental: The sensitivity of 4 F. virguliforme isolates to the compound No. 1.001 was determined by comparing the mycelial growth inhibition of on potato dextrose agar plates amended or not with the compound No. 1.001. The compound No. 1.001 was tested at the following concentrations: 0, 0.001, 0.01, 0.1, 1 and 10 mg.ai./L. The fungicide fludioxonil (commercial formulation Maxim 4 FS) was included in the sensitivity study. The plates were incubated at 20° C. for 9 days. The sensitivity test was set in a completely randomized design with 2 replications for each concentration of fungicide tested. Data obtained for each isolate was transformed using an arcsine transformation. The effective dose for 50% of the fungal growth inhibition (ED50 values) was calculated by regressing the transformed growth inhibition data against the log of the fungicide concentration.

Fusarium virguliforme [2] = experiment: Seed treatment efficacy against soybean sudden death syndrome (inoculated seeds in rolled paper towels); format: in vivo; conditions: fungicide rate 2.5 mg a.i./100 kg seed; soybean cultivar S36-B6, isolate 10-118, hypocotyls and roots, 19 days at 18° C., mean of 3 replications
Experimental: A study was conducted to determine the efficacy of the compound No. 1.001 against F. virguliforme the causal agent of the sudden death syndrome on soybeans. Soybean seeds of the cultivar S36-B6 were treated with the compound No. […] […] Ten soybean seeds were placed on a paper towel (Scotts paper towels, 25.4 cm×33.02 cm in size) that has been previously moistened with 40 milliliters of water. Seeds were inculated with 100 microliters of a F. virguliforme conidial suspension adjusted to 100,000 conidia per milliliter of water. The isolate with the identification number 10-118 of F. virguliforme was used used in this study since it is sensitive to fludioxonil. Inoculated seeds seeds were then covered with another paper towel. Starting at one end, the paper towels with seeds were rolled loosely in a cylinder-fashion. The rolled paper towels with the inoculated seeds were placed into a zipped plastic bag. Bags were labelled with the fungicide treatment and dated. Bags with seeds were then placed in a growth room at a temperature of 18° C. and 12 h photoperiod for 19 days. The study was conducted using a completely randomized design with 3 replications. Disease severity was conducted on the hypocotyls and roots and measured as percentage.

N#Cc1c[nH]cc1-c1cccc2c1OC(F)(F)O2 [Fludioxonil, fludioxonil]
ED50 (effective dose for 50% of the fungal growth inhibition) (Fusarium virguliforme [1]; isolate 10-118): 0.206 mg ai/L
ED50 (effective dose for 50% of the fungal growth inhibition) (Fusarium virguliforme [1]; isolate 10-119): >10 mg ai/L
ED50 (effective dose for 50% of the fungal growth inhibition) (Fusarium virguliforme [1]; isolate 10-120): >10 mg ai/L
ED50 (effective dose for 50% of the fungal growth inhibition) (Fusarium virguliforme [1]; isolate 10-230): >10 mg ai/L
sensitivity of isolate to the fungicide (in words) (Fusarium virguliforme [1]; one isolate of 4): sensitive
dose response of isolates to the fungicide (in words) (Fusarium virguliforme [1]; the other 3 isolates of 4): not a dose response
% disease severity (Fusarium virguliforme [2]): 20.9%
